Assay results taken from US20140234420A1, “Method of Treating Skin Disorders using Nanoscale Delivery Devices and Transdermal Enhancing Compositions” (priority 2008, published 2014).
In brackets after ≈: the same amount, converted by molar mass. Counter-ions that a name gives are not always drawn. Like-named read-outs stand apart in the source and are kept apart here.

Legend:
[1] = Size, polydispersity index and zeta potential determination (Malvern Zetasizer); format: physicochemical
Procedure: Nanoparticles (2 mg) and micelles (2 mg) were dispersed in 2 ml of purified water and bath sonicated for 1 min. They were then centrifuged at 10000 rpm for 5 min and diluted 50 times with distilled water. About 50 μl of the nanoemulsion was taken and dilated to 1 mL using distilled water. A liposome dispersion was diluted 100 times using purified water and probe sonicated for 1 min using 20% amplitude. The sizes, polydispersity indexes, and zeta potentials, were measured with a Malvern Zetasizer.
Nanoparticles (2 mg) were dispersed in 1 ml of purified water and probe sonicated for 1 min using 20% amplitude. Subsequently, the sonicated particles were diluted 10 times with distilled water and properties were measured using a Malvern Zetasizer. […]
Size, polydispersity index and zeta potential determination: nanoparticles (50 μl), nanoemulsions (squalene) (50 μl) and nanomicelles (2 mg) were dispersed in 2 ml of purified water separately, vortex for 1 min. Further, the size, polydispersity index and zeta potential were measured with a Malvern Zetasizer.

[2] = cited from earlier work
[3] = Encapsulation (entrapment) efficiency; format: physicochemical; conditions: for % EE: drug encapsulated in zein/lecithin/squalene nanoemulsions
Procedure: Detection wavelength: 340 nm; Injection volume: 50 μl: Run time: 10 min. […] The resulting solution was centrifuged at 5000 rpm for 5 min. […] The resulting solution was centrifuged 5000 rpm for 5 min. […] In vitro release of MTX from the formulations in phosphate buffer (pH 7.4) was studied using UV-spectrophotometry. […] Benzoyl peroxide content was measured using HPLC.

[4] = cited from earlier work; remark: listed apart in the source
scleroderma patients = conditions: one course of systemic treatment (MTX 15-25 mg/weekly for 6 months); cited from earlier work
[5] = hamster ear in vitro, 24 hrs treatment
Source text: The excised hamster ear was placed on the Franz diffusion cell by exposing ventral surface towards the donor compartment.

[6] = Stability (half-life) of retinol, free and encapsulated; format: physicochemical
Source text: Encapsulation of retinol into the zein nanoparticles and micelles improved the stability of retinol by 2 to 5 fold (see Table 5).

[7] = Dispersibility in aqueous solution; format: physicochemical
[8] = sebum flux from citrate-phosphate buffer (pH 5.5), 37° C.
Procedure: The supporting membrane (polycarbonate membrane, pore size of 0.4 μm) of each insert was loaded with 2.5±0.2 mg of the artificial sebum. […] The study was carried out in an incubator at 125 rpm under 37° C. The complete receptor medium was replaced with fresh medium at predetermined intervals, i.e., 10, 20, 30, 40, 50, 60, 75, 90, 120 and 180 minutes after treatment. […] The cumulative quantity of drug in the receiver compartment was plotted as a function of time. The flux value for a given experiment was obtained from the linear slope (steady-state portion) of the cumulative amount of drug permeated versus time curve.

[9] = drug encapsulated in zein/lecithin/squalene nanoemulsions
[10] = molecules encapsulated in nanoemulsions (Table 23)
[11] = compound encapsulated in zein core-shell particles
[12] = compound encapsulated in zein micelles

For `CN(Cc1cnc2nc(N)nc(N)c2n1)c1ccc(C(=O)N[C@@H](CCC(=O)O)C(=O)O)cc1` [Methotrexate], the Particle Size [1, 9] is listed as 214.3 ± 8.4 nm, the Solubility in water ([2]; at 19° C.) is listed as less than 0.1 g/100 ml and the “Solubility in DMSO” value [2] is listed as 100 mM (≈ 45.4 mg/mL). The “% EE” value [3] was 87.60 ± 2.1%, the “Log P” value [4] was −1.8 and the “Log P” value [4, 10] was −1.8. The “Patients who reached a remission status” value (scleroderma patients) was 51%.

In the case of `COc1cccc2c1C(=O)c1c(O)c3c(c(O)c1C2=O)C[C@@](O)(C(=O)CO)C[C@@H]3O[C@H]1C[C@H](N)[C@H](O)[C@H](C)O1` [Doxorubicin-HCl], the “Particle Size” value [1, 11] is given as 171 ± 45 nm, the “Encapsulation Efficiency” value [3, 11] is given as 61 ± 16% and the “Log P” value ([4]; compounds encapsulated in zein core-shell particles (Table 1)) is given as −0.5.

With `COc1cc(/C=C/C(=O)CC(=O)/C=C/c2ccc(O)c(OC)c2)ccc1O` [Curcumin] the PI [1, 12] was 0.25 ± 0.03, the “Particle Size” value [1, 12] was 124 ± 4 nm and the “Encapsulation Efficiency” value [3, 12] was 95 ± 4%.

In the case of `CC1=C(/C=C/C(C)=C/C=C/C(C)=C/C(=O)O)C(C)(C)CCC1` [Retinoic acid Solution], the “% Applied dose in Cartilage” value [5] is reported as 2.409%, the “% Applied dose in Dermis” value [5] is reported as 1.444% and the “% Applied dose in Dorsal” value [5] is reported as 4.713%. The “% Applied dose in Sebaceous gland” value [5] was 0.06619% and the “% Applied dose in SC” value ([5]; 100 μg retinoic acid) was 1.692%.

In the case of `O=C(OOC(=O)c1ccccc1)c1ccccc1` [Benzoyl peroxide, Benzoyl Peroxide], the Particle Size [1, 9] is listed as 208.5 ± 6.7 nm, the “Solubility in ether and chloroform” value [2] is listed as “Soluble” and the Solubility in water [2] is listed as “insoluble”. For the same compound, the “% EE” value [3] was 83.66 ± 3.81% and the “Log P” value [4, 10] was 3.48.

With `CC1=C(/C=C/C(C)=C/C=C/C(C)=C/CO)C(C)(C)CCC1` [Retinol] the PI [1, 12] was 0.27 ± 0.06, the “Particle Size” value [1, 12] was 191 ± 6 nm and the half-life ([6]; liquid state, Dark) was 20.8 ± 2.1 h. It also gave a half-life ([6]; liquid state, Light) of 16.1 ± 1.9 h, a half-life ([6]; solid state, Dark) of 63 ± 2.7 h and a half-life ([6]; solid state, Light) of 52.8 ± 3.5 h. For the same compound, the Solubility in fat [2] was “soluble”, the Solubility in water [2] was “nearly insoluble” and the “Dispersibility in aqueous solution / water” value [7] was “not dispersible in water”. For the same compound, the “Encapsulation Efficiency” value [3, 12] was 83 ± 3.1%.

For `COc1cccc2c1C(=O)c1c(O)c3c(c(O)c1C2=O)C[C@@](O)(C(=O)CO)C[C@@H]3O[C@H]1C[C@H](N)[C@H](O)[C@H](C)O1` [Doxorubicin], the PI [1, 12] was 0.18 ± 0.06, the “Particle Size” value [1, 12] was 153 ± 3 nm and the “Encapsulation Efficiency” value [3, 12] was 92 ± 6%.

For `CC1=C(/C=C/C(C)=C/C=C/C(C)=C/C(=O)O)C(C)(C)CCC1` [Retinoic acid], the Particle Size [1, 9] is given as 152 ± 3.6 nm, the Flux [8] is given as 0.154 ± 0.003 μg/cm^2/min and the Solubility in fat [2] is given as “soluble”. For the same compound, the Solubility in water [2] was “nearly insoluble” and the “Log P” value [4, 10] was 6.83.

For `CCN(CC)c1ccc2nc3c4ccccc4c(=O)cc-3oc2c1` [Nile Red], the PI [1, 12] was 0.21 ± 0.08, the “Particle Size” value [1, 12] was 165 ± 7 nm and the “Encapsulation Efficiency” value [3, 12] was 77 ± 11%. For the same compound, the “Log P” value ([4]; compounds encapsulated in zein micelles (Table 2)) was 5.
